Data set [1] is described as follows: Microsomal metabolic stability, rat liver microsomes (RLM). The settings on record: rat liver microsomes.
The next data set is described as follows: Aqueous solubility. The settings on record: for Solub.: aqueous solubility.
The conditions of data set [2]: for PAMPA permeability: pH 7.4. Background: PAMPA measures passive passage across an artificial lipid membrane.

Read-outs that look alike come from different tables or passages of the source. Where only a bound is given, the exact number is not on record here.

For `O=C(Cc1ccncc1)NCCCn1c(=O)c2cc(F)ccc2n2c(=S)[nH]nc12` [compound 138, N-(3-(7-fluoro-5-oxo-1-thioxo-1,2-dihydro-[1,2,4]triazolo[4,3-a]quinazolin-4(5H)-yl)propyl)-2-(pyridine-4-yl)acetamide], in the data set “PAMPA permeability”, the “PAMPA” value is below 1 ×10⁻⁶ cm/s. The “t1/2 (min, RLM)” value in data set [1] is on record as above 30 min. Besides, in the data set “Aqueous solubility”, the “Solub.” value was found to be 9.6 µg/mL.

Regarding `O=c1c2cc(F)ccc2n2c(=S)[nH]nc2n1CCCO` [compound 66], the “t1/2 (min, RLM)” value in data set [1] is listed as above 30 min. In addition, the “PAMPA” value in data set [2] came to 222 ×10⁻⁶ cm/s. Moreover, the “Solub.” value in “Aqueous solubility” is above 43 µg/mL.

In the case of `COc1ccccc1CC(=O)NCCCn1c(=O)c2cc(F)ccc2n2c(=S)[nH]nc12` [compound 128, N-(3-(7-fluoro-5-oxo-1-thioxo-1,2-dihydro-[1,2,4]triazolo[4,3-a]quinazolin-4(5H)-yl)propyl)-2-(2-methoxyphenyl)acetamide], in the data set “PAMPA permeability”, the “PAMPA” value was 379 ×10⁻⁶ cm/s. The “t1/2 (min, RLM)” value in data set [1] worked out at 16.1 min. In addition, the “Solub.” value in “Aqueous solubility” was above 65 µg/mL.

On to `O=C(NCCCn1c(=O)c2cc(F)ccc2n2c(=S)[nH]nc12)C1CCCC1` [compound 108], for which the “t1/2 (min, RLM)” value in data set [1] was above 30 min. Moreover, the “PAMPA” value in data set [2] came to 155 ×10⁻⁶ cm/s. Moreover, the “Solub.” value in the data set “Aqueous solubility” is above 58 µg/mL.

For `O=c1c2cc(F)ccc2n2c(=S)[nH]nc2n1CCC1CCC(F)(F)CC1` [compound 93], the “t1/2 (min, RLM)” value in data set [1] was above 30 min. The “PAMPA” value in data set [2] turned out to be 201 ×10⁻⁶ cm/s. Besides, in “Aqueous solubility”, the “Solub.” value was below 1 µg/mL.

For the compound `O=C(Cc1cccnc1)NCCCn1c(=O)c2cc(F)ccc2n2c(=S)[nH]nc12` [compound 137, N-(3-(7-Fluoro-5-oxo-1-thioxo-1,2-dihydro-[1,2,4]triazolo[4,3-a]quinazolin-4(5H)-yl)propyl)-2-(pyridine-3-yl)acetamide], the “PAMPA” value in the data set “PAMPA permeability” turned out to be 21.0 ×10⁻⁶ cm/s. For the same compound, the “t1/2 (min, RLM)” value in data set [1] is above 30 min. Also, in the data set “Aqueous solubility”, the “Solub.” value was 31.8 µg/mL.

As to `O=c1c2cc(F)ccc2n2c(=S)[nH]nc2n1CCN1CCOCC1` [compound 90], the “t1/2 (min, RLM)” value in data set [1] was above 30 min. The “PAMPA” value in data set [2] was 67.0 ×10⁻⁶ cm/s. The “Solub.” value in “Aqueous solubility” was above 52 µg/mL.

On to `O=c1c2cc(F)ccc2n2c(=S)[nH]nc2n1CCN1CCCCC1` [compound 88], for which the “t1/2 (min, RLM)” value in data set [1] is above 30 min. In addition, in data set [2], the “PAMPA” value was found to be 358 ×10⁻⁶ cm/s. Further, in the data set “Aqueous solubility”, the “Solub.” value is 2.4 µg/mL.

For `O=c1c2cc(Cl)ccc2n2c(=S)[nH]nc2n1CCC(F)(F)F` [compound 55], in data set [1], the “t1/2 (min, RLM)” value was above 30 min. The “PAMPA” value in data set [2] stood at 257 ×10⁻⁶ cm/s. Moreover, in the data set “Aqueous solubility”, the “Solub.” value worked out at 5.1 µg/mL.

For the compound `CC(C)(C)OC(=O)Nc1ccc(CC(=O)NCCCn2c(=O)c3cc(F)ccc3n3c(=S)[nH]nc23)cc1` [compound 135, tert-butyl (4-(2-((3-(7-fluoro-5-oxo-1-thioxo-1,2-dihydro-[1,2,4]triazolo[4,3-a]quinazolin-4(5H)-yl)propyl)amino)-2-oxoethyl)phenyl)carbamate], in “PAMPA permeability”, the “PAMPA” value came to 910 ×10⁻⁶ cm/s. Besides, the “t1/2 (min, RLM)” value in data set [1] is on record as above 30 min. The “Solub.” value in the data set “Aqueous solubility” stood at 17.4 µg/mL.

Regarding `O=C(Cc1ccccc1C(F)(F)F)NCCCn1c(=O)c2cc(F)ccc2n2c(=S)[nH]nc12` [compound 131, N-(3-(7-fluoro-5-oxo-1-thioxo-1,2-dihydro-[1,2,4]triazolo[4,3-a]quinazolin-4(5H)-yl)propyl)-2-(2-(trifluoromethyl)phenyl)acetamide], the “PAMPA” value in “PAMPA permeability” was 825 ×10⁻⁶ cm/s. In data set [1], the “t1/2 (min, RLM)” value is listed as 3.7 min. In addition, in “Aqueous solubility”, the “Solub.” value amounted to 40.3 µg/mL.

`CNC(=S)N1CN(CCc2ccccc2)C(=O)c2cc(F)ccc21` [compound 62]: the “t1/2 (min, RLM)” value in data set [1] is 2.2 min. In addition, the “PAMPA” value in data set [2] stood at 161 ×10⁻⁶ cm/s. Also, the “Solub.” value in the data set “Aqueous solubility” was 4.5 µg/mL.

For `O=C(Cc1ccccc1)NCCCn1c(=O)c2cc(F)ccc2n2c(=S)[nH]nc12` [compound 120, N-(3-(7-fluoro-5-oxo-1-thioxo-1,2-dihydro-[1,2,4]triazolo[4,3-a]quinazolin-4(5H)-yl)propyl)-2-phenylacetamide], the “PAMPA” value in “PAMPA permeability” turned out to be 248 ×10⁻⁶ cm/s. Further, the “t1/2 (min, RLM)” value in data set [1] amounted to 18.7 min. The “Solub.” value in “Aqueous solubility” worked out at 31.7 µg/mL.

For `O=c1c2cc(F)ccc2n2c(=S)[nH]nc2n1CCc1ccccn1` [compound 83], the “t1/2 (min, RLM)” value in data set [1] was above 30 min. In data set [2], the “PAMPA” value worked out at 355 ×10⁻⁶ cm/s and the PAMPA permeability entry is “moderate to good permeability”. In addition, in “Aqueous solubility”, the “Solub.” value was found to be 13.0 µg/mL.

With `O=C(CN1CCOCC1)NCCCn1c(=O)c2cc(F)ccc2n2c(=S)[nH]nc12` [compound 118], the “t1/2 (min, RLM)” value in data set [1] is given as above 30 min. The “PAMPA” value in data set [2] was below 1 ×10⁻⁶ cm/s. For the same compound, the “Solub.” value in the data set “Aqueous solubility” was above 62 µg/mL.

In the case of `O=c1c2cc(F)ccc2n2c(=S)[nH]nc2n1CCC(F)(F)F` [compound 65], in data set [1], the “t1/2 (min, RLM)” value is above 30 min. Besides, in data set [2], the “PAMPA” value was 117 ×10⁻⁶ cm/s and the PAMPA permeability result is “moderate to good permeability”. For the same compound, in “Aqueous solubility”, the solubility entry is listed as “moderate to good solubility” and the “Solub.” value was found to be 17.3 µg/mL.

On to `CC(CN(C)C)n1c(=O)c2cc(F)ccc2n2c(=S)[nH]nc12` (centres unmarked) [compound 71], for which, in data set [1], the “t1/2 (min, RLM)” value is reported as above 30 min. For the same compound, the “PAMPA” value in data set [2] was 186 ×10⁻⁶ cm/s. For the same compound, in the data set “Aqueous solubility”, the “Solub.” value is above 47 µg/mL.

For `O=C(Cc1cccc(F)c1)NCCCn1c(=O)c2cc(F)ccc2n2c(=S)[nH]nc12` [compound 122, N-(3-(7-fluoro-5-oxo-1-thioxo-1,2-dihydro-[1,2,4]triazolo[4,3-a]quinazolin-4(5H)-yl)propyl)-2-(3-fluorophenyl)acetamide], the “PAMPA” value in “PAMPA permeability” came out at 364 ×10⁻⁶ cm/s. The “t1/2 (min, RLM)” value in data set [1] was 26.5 min. In the data set “Aqueous solubility”, the “Solub.” value was above 63 µg/mL.

Take `Nc1nnc2n(CCc3ccccc3)c(=O)c3cc(F)ccc3n12` [compound 16]: the “t1/2 (min, RLM)” value in data set [1] is on record as 29.4 min. Moreover, the “PAMPA” value in data set [2] amounted to 885 ×10⁻⁶ cm/s. For the same compound, the “Solub.” value in “Aqueous solubility” turned out to be 2.2 µg/mL.

As for `O=C(O)CCC(=O)NCCCn1c(=O)c2cc(F)ccc2n2c(=S)[nH]nc12` [compound 106], the “t1/2 (min, RLM)” value in data set [1] was above 30 min. Further, the “PAMPA” value in data set [2] is below 1 ×10⁻⁶ cm/s. Also, the “Solub.” value in “Aqueous solubility” is above 58 µg/mL.

With `O=c1c2cc(F)ccc2n2cnnc2n1CCc1ccccc1` [compound 18], in data set [1], the “t1/2 (min, RLM)” value is recorded as 11.8 min. The “PAMPA” value in data set [2] turned out to be 924 ×10⁻⁶ cm/s. In “Aqueous solubility”, the “Solub.” value came to 14.8 µg/mL.

Take `O=C(Cc1cccc(Cl)c1)NCCCn1c(=O)c2cc(F)ccc2n2c(=S)[nH]nc12` [compound 124, 2-(3-chlorophenyl)-N-(3-(7-fluoro-5-oxo-1-thioxo-1,2-dihydro-[1,2,4]triazolo[4,3-a]quinazolin-4(5H)-yl)propyl)acetamide]: the “PAMPA” value in “PAMPA permeability” stood at 861 ×10⁻⁶ cm/s. Further, the “t1/2 (min, RLM)” value in data set [1] is 8.4 min. Moreover, the “Solub.” value in the data set “Aqueous solubility” is above 66 µg/mL.

On to `CN1CCN(CC(=O)NCCCn2c(=O)c3cc(F)ccc3n3c(=S)[nH]nc23)CC1` [compound 117], for which the “t1/2 (min, RLM)” value in data set [1] is reported as above 30 min. For the same compound, the “PAMPA” value in data set [2] is below 1 ×10⁻⁶ cm/s. Besides, in the data set “Aqueous solubility”, the “Solub.” value is above 64 µg/mL.

For `Cc1ccc(CC(=O)NCCCn2c(=O)c3cc(F)ccc3n3c(=S)[nH]nc23)cc1` [compound 126, N-(3-(7-fluoro-5-oxo-1-thioxo-1,2-dihydro-[1,2,4]triazolo[4,3-a]quinazolin-4(5H)-yl)propyl)-2-(p-tolyl)acetamide], the “PAMPA” value in “PAMPA permeability” turned out to be 621 ×10⁻⁶ cm/s. Moreover, the “t1/2 (min, RLM)” value in data set [1] is 23.9 min. The “Solub.” value in “Aqueous solubility” is 12.9 µg/mL.

On to `CCn1c(=O)c2ccccc2n2c(=S)[nH]nc12` [compound 20], for which the “t1/2 (min, RLM)” value in data set [1] is on record as above 30 min. The “PAMPA” value in data set [2] was 427 ×10⁻⁶ cm/s. Also, the “Solub.” value in “Aqueous solubility” is above 36 µg/mL.

For the compound `O=c1c2cc(F)ccc2n2c(=S)[nH]nc2n1CCc1ccc(Cl)cc1` [compound 82], the “t1/2 (min, RLM)” value in data set [1] was above 30 min. The “PAMPA” value in data set [2] is below 1 ×10⁻⁶ cm/s. For the same compound, the “Solub.” value in “Aqueous solubility” worked out at 1.2 µg/mL.

As for `O=c1c2ccccc2n2c(=S)[nH]nc2n1CCC(F)(F)F` [compound 27], in data set [1], the “t1/2 (min, RLM)” value was >30, min. Besides, the “PAMPA” value in data set [2] is 82 ×10⁻⁶ cm/s. The “Solub.” value in the data set “Aqueous solubility” amounted to 23.3 µg/mL.

Consider `CC(C)(C)OC(=O)NC1CCC(C(=O)NCCCn2c(=O)c3cc(F)ccc3n3c(=S)[nH]nc23)CC1` (centres unmarked) [compound 110], for which, in data set [1], the “t1/2 (min, RLM)” value amounted to 24.8 min. In addition, the “PAMPA” value in data set [2] amounted to 330 ×10⁻⁶ cm/s. Further, the “Solub.” value in the data set “Aqueous solubility” is above 77 µg/mL.

With `O=C(NCCCn1c(=O)c2cc(F)ccc2n2c(=S)[nH]nc12)c1ccccc1` [compound 74], the “t1/2 (min, RLM)” value in data set [1] is listed as above 30 min. In addition, the “PAMPA” value in data set [2] was 267 ×10⁻⁶ cm/s. Also, the “Solub.” value in the data set “Aqueous solubility” worked out at 21.9 µg/mL.

As for `CC(C)(C)OC(=O)N1CC(CCn2c(=O)c3cc(F)ccc3n3c(=S)[nH]nc23)C1` [compound 86], in data set [2], the “PAMPA” value amounted to 229 ×10⁻⁶ cm/s. The “Solub.” value in “Aqueous solubility” was 15 µg/mL.

Take `NS(=O)(=O)CCCC(=O)NCCCn1c(=O)c2cc(F)ccc2n2c(=S)[nH]nc12` [compound 107]: the “t1/2 (min, RLM)” value in data set [1] is reported as above 30 min. In data set [2], the “PAMPA” value is 3.0 ×10⁻⁶ cm/s. Also, the “Solub.” value in “Aqueous solubility” stood at 42.4 µg/mL.

Turning to `CN(C)CCn1c(=O)c2cc(F)ccc2n2c(=S)[nH]nc12` [compound 70], the “t1/2 (min, RLM)” value in data set [1] is recorded as above 30 min. The “PAMPA” value in data set [2] stood at 177 ×10⁻⁶ cm/s. Also, the “Solub.” value in “Aqueous solubility” is above 45 µg/mL.

`O=c1c2cc(F)ccc2n2c(=S)[nH]nc2n1CCN1CCC(F)(F)CC1` [compound 89]: the “t1/2 (min, RLM)” value in data set [1] is given as above 30 min. Also, the “PAMPA” value in data set [2] is 234 ×10⁻⁶ cm/s. The “Solub.” value in “Aqueous solubility” worked out at 20.2 µg/mL.

`O=c1c2cc(F)ccc2n2c(=S)[nH]nc2n1Cc1ccccc1` [compound 52]: the “t1/2 (min, RLM)” value in data set [1] is listed as above 30 min. For the same compound, the “PAMPA” value in data set [2] stood at 841 ×10⁻⁶ cm/s. In addition, in “Aqueous solubility”, the “Solub.” value turned out to be 8.3 µg/mL.

The values are drawn from patent US20230365568A1, “PLK1 POLO BOX DOMAIN INHIBITORS AND METHOD OF TREATING CANCER” (The United States of America,as represented by the …, priority 2020, published 2023).
